The values below come from patent publication US12084444B2, “Spiro-lactam NMDA modulators and methods of using same” (Tenacia Biotechnology (Hong Kong) Co., Limited, priority 2016, dated 2024).

One data set is described as follows: IV pharmacokinetics. The following applies: Sprague Dawley, in vivo, rat, 2 mg/kg, normal saline; for Vd: read-out: Vss. Also noted: species or system Sprague Dawley rats. On the procedure: Sprague Dawley rats were dosed intravenously using a normal saline formulation containing 2 mg/kg of the compounds identified in the below table. The table below summarizes the results of the IV pharmacokinetics.

The nature of data set [1]: Oral pharmacokinetics (plasma, brain, CSF). Format: in vivo, Sprague Dawley rats. The following applies: rat, per os, 10 mg/kg; for AUC(0-t) / bioavailability / Tmax / Cmax: Sprague Dawley, plasma, po; for Tmax: normal saline. On the procedure:
In another experiment, Sprague Dawley rats were dosed per os using a normal saline formulation containing 10 mg/kg of the compounds identified in the table below. Plasma, brain, and CSF samples were analyzed at various time points over a 24 hour period. The table below summarizes the results of the oral pharmacokinetics.

Data set [2] addresses T1, NMDAR2B expressing HEK cell membranes (Homo sapiens, UniProt Q05586+Q13224).
T1 construct: expressed in transfected cells; host or cells: HEK cells (membrane extract)
Briefly: NMDAR agonist assay, [3H]MK-801 binding, NMDAR2B. Type of data set: biochemical. Also noted: key to NMDAR2B B: log EC50: 0=−; ≥1×10^−9 M (e.g., −8)=+; <1×10^−9 M (e.g., −10)=++. Particulars: 50 μM glutamate; for EC50: read-out: NMDAR2B B: log EC50 (converted); for Emax: 0.25 h, read-out: NMDAR2B A: % maximal [3H]MK-801 binding relative to 1 mM glycine. On the procedure:
(§1) Assays were conducted as described by Moskal et al., “GLYX-13: a monoclonal antibody-derived peptide that acts as an N-methyl-D-aspartate receptor modulator,” Neuropharmacology, 49, 1077-87, 2005. These studies were designed to determine if the test compounds act to facilitate NMDAR activation in NMDAR2A, NMDAR2B, NMDAR2C or NMDAR2D expressing HEK cell membranes as measured by increases in [^3H]MK-801 binding.
(§2) In the assay, 300 μg of NMDAR expressing HEK cell membrane extract protein was preincubated for 15 minutes at 25° C. in the presence of saturating concentrations of glutamate (50 μM) and varying concentrations of test compound (1×10^−15 M-1×10^−7 M), or 1 mM glycine. Following the addition of 0.3 μCi of [^3H]MK-801 (22.5 Ci/mmol), reactions were again incubated for 15 minutes at 25° C. (nonequilibrium conditions). Bound and free [^3H]MK-801 were separated via rapid filtration using a Brandel apparatus.
(§3) In analyzing the data, the DPM (disintegrations per minute) of [^3H]MK-801 remaining on the filter were measured for each concentration of test compound or for 1 mM glycine. The DPM values for each concentration of a ligand (N=2) were averaged. The baseline value was determined from the best fit curve of the DPM values modeled using the GraphPad program and the log(agonist) vs. response(three parameters) algorithm was then subtracted from all points in the dataset. The % maximal [^3H]MK-801 binding was then calculated relative to that of 1 mM glycine: all baseline subtracted DPM values were divided by the average value for 1 mM glycine. The EC50 and % maximal activity were then obtained from the best fit curve of the % maximal [^3H]MK-801 binding data modelled using the GraphPad program and the log(agonist) vs. response(three parameters) algorithm.
(§4) The tables below summarize the results for the wild type NMDAR agonists NMDAR2A, NMDAR2B, NMDAR2C, and NMDAR2D, and whether the compound is not an agonist (−), is an agonist (+), or is a strong agonist (++), where column A is based on the % maximal [^3H]MK-801 binding relative to 1 mM glycine (−=0; <100%=+; and >100%=++); and column B is based on log EC50 values (0=−; ≥1×10^−9 M (e.g., −8)=+; and <1×10^−9 M (e.g., −10)=++).

Data set [3] addresses T2, NMDAR2A expressing HEK cell membranes (Homo sapiens, UniProt Q12879).
T2 construct: expressed in transfected cells; host or cells: HEK cells (membrane extract)
Briefly: NMDAR agonist assay, [3H]MK-801 binding, NMDAR2A. Format: biochemical. Also on record: key to NMDAR2A B: log EC50: 0=−; ≥1×10^−9 M (e.g., −8)=+; <1×10^−9 M (e.g., −10)=++. The following applies: 50 μM glutamate. How it is done: as §1, §2, §3, §4

Data set [4] addresses T3, NMDAR2A expressing HEK cell membranes (Homo sapiens, UniProt Q05586+Q12879).
T3 construct: expressed in transfected cells; host or cells: HEK cells (membrane extract)
Briefly: NMDAR agonist assay, [3H]MK-801 binding, NMDAR2A. The following applies: 50 μM glutamate; for Emax: 0.25 h, read-out: NMDAR2A A: % maximal [3H]MK-801 binding relative to 1 mM glycine; for EC50: read-out: NMDAR2A B: log EC50 (converted). Type of data set: biochemical. Also noted: key to NMDAR2A B: log EC50: 0=−; ≥1×10^−9 M (e.g., −8)=+; <1×10^−9 M (e.g., −10)=++. How it is done:
as §1, §2, §3, §4

Data set [5] has as its target T4, NMDAR2B expressing HEK cell membranes (Homo sapiens, UniProt Q13224).
T4 construct: expressed in transfected cells; host or cells: HEK cells (membrane extract)
Briefly: NMDAR agonist assay, [3H]MK-801 binding, NMDAR2B. The following applies: 50 μM glutamate. Format: biochemical. Also noted: key to NMDAR2B B: log EC50: 0=−; ≥1×10^−9 M (e.g., −8)=+; <1×10^−9 M (e.g., −10)=++. How it is done: as §1, §2, §3, §4

SMILES strings stand for the structures.

T2 sequence (Q12879 23-1464, other chains not shown): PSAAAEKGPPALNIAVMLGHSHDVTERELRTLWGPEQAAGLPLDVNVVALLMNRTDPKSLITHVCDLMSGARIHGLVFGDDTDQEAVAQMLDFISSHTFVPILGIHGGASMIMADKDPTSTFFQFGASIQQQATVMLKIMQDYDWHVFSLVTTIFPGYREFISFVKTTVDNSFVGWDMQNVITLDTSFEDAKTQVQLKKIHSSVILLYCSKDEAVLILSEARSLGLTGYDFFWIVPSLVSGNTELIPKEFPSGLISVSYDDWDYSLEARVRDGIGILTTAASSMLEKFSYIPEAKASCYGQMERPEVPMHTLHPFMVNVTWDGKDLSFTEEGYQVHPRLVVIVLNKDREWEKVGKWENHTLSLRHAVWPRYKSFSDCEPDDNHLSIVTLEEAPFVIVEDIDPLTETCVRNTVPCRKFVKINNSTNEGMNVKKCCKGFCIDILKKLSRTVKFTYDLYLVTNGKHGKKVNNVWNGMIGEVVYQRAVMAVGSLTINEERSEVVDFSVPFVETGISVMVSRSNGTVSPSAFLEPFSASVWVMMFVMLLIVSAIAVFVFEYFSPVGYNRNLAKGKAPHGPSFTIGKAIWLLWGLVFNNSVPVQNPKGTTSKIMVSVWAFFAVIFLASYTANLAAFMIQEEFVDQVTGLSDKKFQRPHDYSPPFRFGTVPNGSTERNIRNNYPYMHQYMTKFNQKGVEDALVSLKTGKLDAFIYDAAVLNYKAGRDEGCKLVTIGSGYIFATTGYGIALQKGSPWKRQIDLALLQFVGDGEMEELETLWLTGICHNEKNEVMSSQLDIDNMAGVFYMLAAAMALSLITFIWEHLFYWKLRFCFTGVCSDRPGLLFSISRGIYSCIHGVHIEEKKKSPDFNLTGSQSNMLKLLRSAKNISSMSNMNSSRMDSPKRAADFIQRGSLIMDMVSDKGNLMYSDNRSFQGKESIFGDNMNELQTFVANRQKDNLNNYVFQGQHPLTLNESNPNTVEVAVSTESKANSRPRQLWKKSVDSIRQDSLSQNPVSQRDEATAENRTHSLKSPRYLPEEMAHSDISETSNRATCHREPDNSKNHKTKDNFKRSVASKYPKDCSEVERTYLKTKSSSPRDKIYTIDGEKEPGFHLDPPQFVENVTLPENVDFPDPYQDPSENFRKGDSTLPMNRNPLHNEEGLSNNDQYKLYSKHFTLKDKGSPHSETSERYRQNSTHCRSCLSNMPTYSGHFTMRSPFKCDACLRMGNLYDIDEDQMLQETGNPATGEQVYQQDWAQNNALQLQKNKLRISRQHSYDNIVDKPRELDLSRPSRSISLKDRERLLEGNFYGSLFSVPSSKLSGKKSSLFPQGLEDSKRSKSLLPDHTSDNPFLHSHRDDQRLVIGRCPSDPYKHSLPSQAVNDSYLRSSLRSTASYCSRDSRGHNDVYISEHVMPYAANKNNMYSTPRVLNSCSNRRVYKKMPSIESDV
T3 sequence (Q12879 23-1464, other chains not shown): as above
T1 sequence (Q13224 27-1484, other chains not shown): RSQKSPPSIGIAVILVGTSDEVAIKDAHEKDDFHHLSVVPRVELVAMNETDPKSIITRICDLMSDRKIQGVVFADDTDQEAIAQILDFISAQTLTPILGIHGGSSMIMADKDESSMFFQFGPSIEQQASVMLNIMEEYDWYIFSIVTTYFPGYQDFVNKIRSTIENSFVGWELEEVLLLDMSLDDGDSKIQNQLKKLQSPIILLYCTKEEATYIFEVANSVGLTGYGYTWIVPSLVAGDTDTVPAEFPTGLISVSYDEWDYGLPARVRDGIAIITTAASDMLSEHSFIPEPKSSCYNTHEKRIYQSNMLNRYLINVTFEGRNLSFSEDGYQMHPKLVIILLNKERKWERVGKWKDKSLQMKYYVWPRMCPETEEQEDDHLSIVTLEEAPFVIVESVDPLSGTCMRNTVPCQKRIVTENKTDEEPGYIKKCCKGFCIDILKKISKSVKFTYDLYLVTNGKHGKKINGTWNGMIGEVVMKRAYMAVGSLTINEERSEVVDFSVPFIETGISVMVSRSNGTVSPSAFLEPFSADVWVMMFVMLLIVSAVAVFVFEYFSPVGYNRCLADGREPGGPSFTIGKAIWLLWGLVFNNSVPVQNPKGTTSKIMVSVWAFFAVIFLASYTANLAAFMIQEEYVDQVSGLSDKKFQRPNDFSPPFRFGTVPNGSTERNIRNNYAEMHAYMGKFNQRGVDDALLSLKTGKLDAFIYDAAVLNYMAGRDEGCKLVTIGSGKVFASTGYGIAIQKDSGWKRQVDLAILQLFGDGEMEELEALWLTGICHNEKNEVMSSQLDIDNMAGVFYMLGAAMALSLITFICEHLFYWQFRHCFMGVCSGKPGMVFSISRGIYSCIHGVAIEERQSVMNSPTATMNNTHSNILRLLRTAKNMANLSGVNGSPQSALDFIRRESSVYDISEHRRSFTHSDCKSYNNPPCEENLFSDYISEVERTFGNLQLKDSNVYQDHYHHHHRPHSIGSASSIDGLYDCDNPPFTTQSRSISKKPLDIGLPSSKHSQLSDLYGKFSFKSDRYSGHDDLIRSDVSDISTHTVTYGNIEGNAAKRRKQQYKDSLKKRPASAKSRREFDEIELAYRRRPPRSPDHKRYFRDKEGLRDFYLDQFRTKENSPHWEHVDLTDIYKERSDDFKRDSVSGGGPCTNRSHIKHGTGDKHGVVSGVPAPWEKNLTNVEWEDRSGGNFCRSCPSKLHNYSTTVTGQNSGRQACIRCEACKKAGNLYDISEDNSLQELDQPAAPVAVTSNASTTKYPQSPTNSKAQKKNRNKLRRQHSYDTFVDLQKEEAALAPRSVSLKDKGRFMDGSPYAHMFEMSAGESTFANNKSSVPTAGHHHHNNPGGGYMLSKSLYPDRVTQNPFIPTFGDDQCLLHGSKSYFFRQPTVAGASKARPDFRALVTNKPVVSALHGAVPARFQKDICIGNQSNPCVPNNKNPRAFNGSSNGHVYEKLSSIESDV

Usually AUC(0-t) stands for exposure summed from dosing to a finite time, without extrapolation to infinity. Broadly, the clearance is the rate of elimination divided by the concentration. One may read the half-life as the time needed for the level to fall by half in the phase considered. One may read the bioavailability as dose-corrected exposure relative to a reference, in per cent. A word on the Tmax: it is the time from dosing to the highest level. As a reminder, the Cmax is the highest concentration seen after dosing. The EC50 is the concentration at which the effect is half-maximal. In the case of `C[C@@H](O)[C@@H](C(=O)NCc1ccccc1)N1CC2(CCNC(=O)C2)C1=O` (single isomer, unassigned) [CB], in the data set “IV pharmacokinetics”, the AUC(0-t) came to 1320 ng·h/mL, the C0 was determined as 4320 ng/mL, the clearance was determined as 25.3 mL/min/kg and the half-life is 106 min. Further, the Vd in the data set “IV pharmacokinetics” was found to be 1.2 L/kg. Besides, in data set [1], the AUC(0-t) stood at 297 ng·h/mL, the bioavailability was found to be 5%, the Tmax worked out at 30 min and the Cmax came out at 143 ng/mL. For the same compound, in data set [1], the “CSF Cmax” value stood at 31.02 ng/mL and the “Brain Cmax” value is on record as 7.38 ng/mL. For the same compound, in data set [2], the EC50 was under 1 nM and the Emax was under 100%. The “NMDAR2A B: log EC50” value in data set [3] is “−”. Moreover, the Emax in data set [4] amounted to 0%.
In the data set “IV pharmacokinetics”, `C[C@@H](O)[C@@H](C(=O)N(C)C)N1CC2(CCNC(=O)C2)C1=O` (single isomer, unassigned) [CC] showed an AUC(0-t) of 2130 ng·h/mL, a C0 of 7930 ng/mL, a clearance of 15.7 mL/min/kg and a half-life of 127 min. The Vd in “IV pharmacokinetics” was found to be 0.5 L/kg. In data set [1], the AUC(0-t) was found to be 701 ng·h/mL, the bioavailability was found to be 7%, the Tmax came to 25.2 min and the highest level (Cmax) was 191 ng/mL. For the same compound, in data set [1], the “CSF Cmax” value is 0 ng/mL and the “Brain Cmax” value is 0 ng/mL. In data set [2], the EC50 was under 1 nM and the Emax is under 100%. Also, in data set [3], the “NMDAR2A A: % maximal [3H]MK-801 binding relative to 1 mM glycine” value is listed as “− (−=0)” and the “NMDAR2A B: log EC50” value was “−”.
In the data set “IV pharmacokinetics”, `COc1ccc(CN2CC3(CCN(C)C(=O)C3)C2=O)cc1` (single isomer, unassigned) [CI, 2-(4-methoxybenzyl)-7-methyl-2,7-diazaspiro[3.5]nonane-1,6-dione] showed an AUC(0-t) of 1040 ng·h/mL, a C0 of 2120 ng/mL, a clearance of 32 mL/min/kg and a half-life of 25.2 min. Also, the Vd in the data set “IV pharmacokinetics” was found to be 0.91 L/kg. Further, in data set [1], the AUC(0-t) stood at 5060 ng·h/mL, the bioavailability is 97%, the Tmax is 15 min and the Cmax was 5050 ng/mL. Further, in data set [1], the “CSF Cmax” value is 1113.94 ng/mL and the “Brain Cmax” value stood at 996.66 ng/mL. Besides, in data set [2], the EC50 is under 1 nM and the Emax is under 100%. For the same compound, in data set [4], the EC50 was under 1 nM and the Emax is under 100%.
Regarding `CCN1CCC2(CC1=O)CN(Cc1ccc(OC)cc1)C2=O` (single isomer, unassigned) [CL, 7-ethyl-2-(4-methoxybenzyl)-2,7-diazaspiro[3.5]nonane-1,6-dione], in “IV pharmacokinetics”, the AUC(0-t) is 772 ng·h/mL, the C0 stood at 2690 ng/mL, the clearance amounted to 41.7 mL/min/kg and the half-life was 12.6 min. Further, the Vd in “IV pharmacokinetics” is 0.7 L/kg. In data set [1], the AUC(0-t) is 1430 ng·h/mL, the bioavailability is 37%, the Tmax turned out to be 15 min and the Cmax was determined as 1800 ng/mL. Further, in data set [1], the “CSF Cmax” value was 866.42 ng/mL and the “Brain Cmax” value stood at 707.6 ng/mL. In data set [2], the EC50 was under 1 nM and the Emax was under 100%. Further, in data set [4], the EC50 was under 1 nM and the Emax is under 100%.
As for `C[C@@H](O)[C@@H](C(=O)NCc1ccccc1)N1CC2(CCNC(=O)C2)C1=O` (stereo partly drawn) [CA, (2S,3R)—N-benzyl-2-(1,6-dioxo-2,7-diazaspiro[3.5]nonan-2-yl)-3-hydroxybutanamide], the Emax in data set [2] and in data set [4] was 0% throughout. Besides, the “NMDAR2B B: log EC50” value in data set [5] is reported as “−”. Also, the “NMDAR2A B: log EC50” value in data set [3] is listed as “−”.
As for `CC1CC(=O)N(c2ccc(F)cc2)C12CN(CC(N)=O)C2=O` (centres unmarked) [CE, 2-(5-(4-fluorophenyl)-8-methyl-1,6-dioxo-2,5-diazaspiro[3.4]octan-2-yl)acetamide], the Emax in data set [2] and in data set [4] was 0% in each case. The “NMDAR2B B: log EC50” value in data set [5] was “−”. For the same compound, the “NMDAR2A B: log EC50” value in data set [3] is recorded as “−”.
Consider `CC1C(N)C(=O)N(C)C12CN(Cc1ccccc1)C2=O` (centres unmarked) [CH, 7-amino-2-benzyl-5,8-dimethyl-2,5-diazaspiro[3.4]octane-1,6-dione], for which the Emax in data set [2] and in data set [4] was 0% each time. In addition, the “NMDAR2B B: log EC50” value in data set [5] was “−”. The “NMDAR2A B: log EC50” value in data set [3] is on record as “−”.
Consider `CCN1CCC2(CC1=O)CN(Cc1ccc(OC)cc1)C2=O` (centres unmarked) [CK, 7-ethyl-2-(4-methoxybenzyl)-2,7-diazaspiro[3.5]nonane-1,6-dione], for which the Emax in data set [2] and in data set [4] was 0% throughout. In addition, the “NMDAR2B B: log EC50” value in data set [5] is “−”. The “NMDAR2A B: log EC50” value in data set [3] is reported as “−”.
For `CNC(=O)[C@H]([C@@H](C)O)N1CC2(CCNC(=O)C2)C1=O` (stereo partly drawn) [DA, (2S,3R)-2-(1,6-dioxo-2,7-diazaspiro[3.5]nonan-2-yl)-3-hydroxy-N-methylbutanamide], the Emax in data set [2] and in data set [4] was 0% in each case. Besides, the “NMDAR2B B: log EC50” value in data set [5] is reported as “−”. In addition, the “NMDAR2A B: log EC50” value in data set [3] was “−”.
